Experimental data taken from ChEMBL document CHEMBL1201862, “PubChem BioAssay data set” (2004).
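Following 48 hours of exposure in 96-well plates, responses at five concentrations were used to interpolate endpoints linearly. GI50 is the concentration that inhibits growth by half.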 Calls of active or inactive are those of the source. Cut-off read from the data, not from the text of the source: active = GI50 up to about 1.1 µM and inactive = higher.

Assays:
Assay in all cases: growth of human tumour cells (NCI), 48 h
PC-3 = test system: PC-3
SK-MEL-2 = test system: SK-MEL-2
SNB-75 = test system: SNB-75
OVCAR-5 = test system: OVCAR-5
A549 = test system: A549
NCI-H226 = test system: NCI-H226
MDA-N = test system: MDA-N
ACHN = test system: ACHN
NCI/ADR-RES = test system: NCI/ADR-RES
HT-29 = test system: HT-29
MDA-MB-231 = test system: MDA-MB-231
786-0 = test system: 786-0
Hs-578T = test system: Hs-578T
SK-OV-3 = test system: SK-OV-3
MCF7 = test system: MCF7
NCI-H522 = test system: NCI-H522
NCI-H460 = test system: NCI-H460
HOP-92 = test system: HOP-92
HCC 2998 = test system: HCC 2998
DU-145 = test system: DU-145
SF-295 = test system: SF-295
KM12 = test system: KM12
IGROV-1 = test system: IGROV-1
OVCAR-3 = test system: OVCAR-3
CAKI-1 = test system: CAKI-1
U-251 = test system: U-251
SN12C = test system: SN12C
UO-31 = test system: UO-31
OVCAR-4 = test system: OVCAR-4
HCT-15 = test system: HCT-15
UACC-257 = test system: UACC-257
K562 = test system: K562
SK-MEL-5 = test system: SK-MEL-5
A498 = test system: A498
SNB-19 = test system: SNB-19
TK-10 = test system: TK-10
NCI-H23 = test system: NCI-H23
RPMI-8226 = test system: RPMI-8226
UACC-62 = test system: UACC-62
HL-60 = test system: HL-60
HOP-62 = test system: HOP-62
HCT-116 = test system: HCT-116
MDA-MB-435 = test system: MDA-MB-435
SW-620 = test system: SW-620
M14 = test system: M14
LOX IMVI = test system: LOX IMVI
BT-549 = test system: BT-549
SF-539 = test system: SF-539
SR = test system: SR
OVCAR-8 = test system: OVCAR-8
CCRF-CEM = test system: CCRF-CEM
EKVX = test system: EKVX
T47D = test system: T47D
SF-268 = test system: SF-268
COLO 205 = test system: COLO 205
MOLT-4 = test system: MOLT-4
Malme-3M = test system: Malme-3M
SK-MEL-28 = test system: SK-MEL-28

Measured: GI50

COc1ccc2c(c1OC)C(=O)O[C@@H]2[C@H]1c2cc3c(cc2CCN1C)OCO3
> 100 µM: HCT-15
inactive: PC-3 > 100 µM | SK-MEL-2 > 100 µM | SNB-75 > 100 µM | OVCAR-5 > 100 µM | A549 > 100 µM | NCI-H226 > 100 µM | MDA-N > 100 µM | ACHN > 100 µM | NCI/ADR-RES > 100 µM | HT-29 > 100 µM | MDA-MB-231 > 100 µM | 786-0 > 100 µM | Hs-578T > 100 µM | SK-OV-3 > 100 µM | MCF7 > 100 µM | NCI-H522 > 100 µM | NCI-H460 > 100 µM | HOP-92 > 100 µM | HCC 2998 > 100 µM | DU-145 > 100 µM | SF-295 > 100 µM | KM12 > 100 µM | IGROV-1 > 100 µM | OVCAR-3 > 100 µM | CAKI-1 > 100 µM | U-251 > 100 µM | SN12C > 100 µM | UO-31 > 100 µM | OVCAR-4 > 100 µM | UACC-257 > 100 µM | K562 > 100 µM | SK-MEL-5 > 100 µM | A498 > 100 µM | SNB-19 > 100 µM | TK-10 > 100 µM | NCI-H23 > 100 µM | RPMI-8226 > 100 µM | UACC-62 > 100 µM | HL-60 > 100 µM | HOP-62 > 100 µM | HCT-116 > 100 µM | MDA-MB-435 > 100 µM | SW-620 > 100 µM | M14 > 100 µM | LOX IMVI > 100 µM | BT-549 > 100 µM | SF-539 > 100 µM | SR > 100 µM | OVCAR-8 > 100 µM | CCRF-CEM > 10 µM | EKVX > 100 µM | T47D > 100 µM | SF-268 > 100 µM | COLO 205 > 100 µM | MOLT-4 > 100 µM

CC(=O)Oc1ccc(-c2cc3ccccc3oc2=O)cc1
inactive: PC-3 > 100 µM | SK-MEL-2 > 100 µM | SNB-75 56.6 µM | OVCAR-5 > 100 µM | A549 > 100 µM | NCI-H226 > 100 µM | MDA-N > 100 µM | ACHN > 100 µM | NCI/ADR-RES > 100 µM | HT-29 > 100 µM | MDA-MB-231 > 100 µM | 786-0 > 100 µM | Hs-578T > 100 µM | MCF7 > 100 µM | NCI-H522 21.8 µM | NCI-H460 > 100 µM | HOP-92 60.8 µM | HCC 2998 > 100 µM | DU-145 > 100 µM | SF-295 43.9 µM | KM12 18.7 µM | OVCAR-3 6.27 µM | U-251 > 100 µM | SN12C > 100 µM | UO-31 > 100 µM | OVCAR-4 > 100 µM | UACC-257 > 100 µM | K562 83.4 µM | A498 38.9 µM | SNB-19 > 100 µM | TK-10 > 100 µM | Malme-3M > 100 µM | NCI-H23 > 100 µM | SK-MEL-28 > 100 µM | RPMI-8226 > 100 µM | HL-60 24.8 µM | HOP-62 > 100 µM | HCT-116 > 100 µM | MDA-MB-435 > 100 µM | SW-620 > 100 µM | M14 > 100 µM | LOX IMVI 81.3 µM | BT-549 > 100 µM | SF-539 > 100 µM | SR 56.9 µM | OVCAR-8 > 100 µM | CCRF-CEM > 100 µM | EKVX 61.1 µM | T47D 52.8 µM | SF-268 > 100 µM | COLO 205 > 100 µM | MOLT-4 45.6 µM
> 100 µM: HCT-15
